Among the data in patent publication US6972287B1, “Method of inhibiting amyloid protein aggregation and imaging amyloid deposits” (Pfizer Inc., priority 1999, dated 2005) are IC50 and melting point values, retold here.

As usually defined, the IC50 is the concentration at which inhibition is half-maximal. Usually melting point stands for the temperature, or range, at which the solid turns liquid.

For data set [1], the target named is T1, Aβ(1-40) (Homo sapiens, UniProt P05067).
T1 construct: […]; purchased Bachem, Torrance, Calif
Nature of the data set: BASSR (Beta-Amyloid Self-Seeding Radioassay), inhibitors of self-seeded amyloid fibril growth. Particulars: 30 μM soluble Aβ(1-40) + 125I-labeled Aβ(1-40), 37° C., 3 to 5 hours; replicate values; letter = synthetic lot; ppt = precipitate; V-shaped = inhibition followed by precipitation. Type of data set: biochemical. The method in brief:
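Self-seeded growth of ^125I-labeled Aβ(1-40) fibrils in 50 mM sodium phosphate pH 7.5, 100 mM NaCl, 0.02% NaN3, 1 M urea; compound (3-fold dilutions from 100 μM final) preincubated 10 min on ice, then 3–5 h at 37° C. Fibrils collected by vacuum filtration on 0.2 μm filters and counted for radioactivity.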

Data set [2] concerns the target T1, Aβ(1-40). Nature of the data set: BASST (Beta-Amyloid Self-Seeding, Thioflavin T), inhibitors of self-seeded amyloid fibril growth. In kind it is biochemical. Particulars: 30 μM soluble Aβ(1-40), 37° C., 3 to 5 hours, thioflavin T fluorescence; replicate values; letter = synthetic lot; read-out: BASST (IC50 = μM). In outline:
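Self-seeded Aβ(1-40) fibril growth was run in 50 mM sodium phosphate pH 7.5, 100 mM NaCl, 0.02% NaN3, 1 M urea. Compounds were tested in 3-fold serial dilutions (top 100 μM final): 10 min on ice, then 3–5 h at 37 °C. Fibrils were read by 5 μM thioflavin T fluorescence (ex 440/em 485 nm).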

A further data set concerns the target T2, Aβ (1-42) (Homo sapiens, UniProt P05067).
T2 construct: Required Aβ (1-42) (California Peptide) was dried from its hexafluoroisopropanol (HFIP) stock solution; purchased California Peptide
Nature of the data set: BATYM assay (Aβ (1-42) aggregation, Thioflavin T fluorescence). Type of data set: biochemical. Conditions: Aβ 1-42 final concentration 100 μM, 37° C., 1 day, letter = synthetic lot. The method in brief:
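Aβ (1-42) (100 μM final, PBS pH 7.4 from DMSO) incubated with compound at 37° C. for 1 day. Aggregation read by ThT (30 μM, glycine-NaOH pH 8.5) fluorescence, ex 440/em 485 nm; inhibition as fluorescence reduction corrected for compound-alone signal, IC50 by curve fitting from two experiments in triplicate.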

The target in another data set is T3, Aβ (1-40) peptide (Homo sapiens, UniProt P05067).
T3 construct: 10 μL 0.5 mg/mL Aβ (1-40) peptide in 20% HFIP
Nature of the data set: BAPA (Beta-Amyloid Peptide Aggregation, pH 6.0, filtration). Particulars: Aβ (1-40) 33 μM, pH 6.0, 2 to 4 hours at room temperature; replicate values; letter = synthetic lot. Type of data set: biochemical. The method in brief: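 Aggregation of human Aβ (1-40) peptide was measured in an endpoint filtration assay. The peptide was first reduced to monomer with hexafluoroisopropanol (HFIP), then used at 33 μM so it would aggregate at pH 6.0, and incubated for 2 to 4 hours at room temperature. Filter plates were washed with 100 μL phosphate buffer, impregnated with Meltilex, and counted on a Microbeta counter with background correction.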

Values joined by “and” are separate entries in the source; they are usually repeats but may differ in a detail not shown here. Equal values may be shown once. Where only a bound is given, the exact number is not on record here.

T2 sequence (P05067 672-713 limits assumed): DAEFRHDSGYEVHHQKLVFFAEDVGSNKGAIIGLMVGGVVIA
T3 sequence (P05067 672-711 limits assumed): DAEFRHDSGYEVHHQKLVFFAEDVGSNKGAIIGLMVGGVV
T1 sequence (P05067 672-711 limits assumed): as above

As for `CC(=O)Nc1cccc(CCCc2ccc(Nc3ccccc3C(=O)O)cc2)c1` [Example 40, 2-{4-[3-(3-Acetylaminophenyl)propyl]phenylamino}benzoic acid], the melting point lay in the range of 140 to 145 °C. The IC50 at Aβ(1-40) [1] was over 100 µM. Moreover, on Aβ(1-40) [2], the IC50 worked out at 3 µM. The IC50 against Aβ (1-42) was over 100 µM. Further, on Aβ (1-40) peptide, the IC50 was determined as 53 µM.

As to `CCN(CC)c1cccc(CCc2ccc(Nc3ccccc3C(=O)O)cc2)c1.Cl` [Example 41, 2-{4-[2-(3-Diethylaminophenyl)ethyl]phenylamino}benzoic acid monohydrochloride], the melting point fell in the range of 166 to 171 °C. Also, on Aβ(1-40) [1], the IC50 is over 100 µM. The IC50 on Aβ(1-40) [2] was 5 µM. This compound also showed an IC50 at Aβ (1-42) of 49.7 µM. The compound also yielded an IC50 on Aβ (1-40) peptide of 42 µM.

In turn, `Cl.O=C(O)c1ccccc1Nc1ccc(CCc2cccc(N3CCCCC3)c2)cc1` [Example 42, 2-{4-[2-(3-Piperidin-1-ylphenyl)ethyl]phenylamino}benzoic acid monohydrochloride] came in with a melting point of 187 to 193 °C. Besides, the IC50 at Aβ(1-40) [1] is over 100 µM. For the same compound, the IC50 at Aβ(1-40) [2] was 2 µM. At Aβ (1-42), this compound had an IC50 of 55.6 µM. On Aβ (1-40) peptide, this compound displayed an IC50 of 30 µM.

Compound `CCCCN1CCCc2cc(C=C3SC(=S)N(CC(=O)O)C3=O)ccc21` [Example 55, {5-[(1-Butyl-1,2,3,4-tetrahydro-6-quinolyl)methylidene]-4-oxo-2-thioxothiazolidin-3-yl}acetic acid] came in with a melting point of 222 to 224 °C. On Aβ(1-40) [1], the half-maximal inhibitory concentration (IC50) is 12 µM. The IC50 on Aβ(1-40) [2] turned out to be 2 µM. The IC50 on Aβ (1-42) is 5.1 µM. For the same compound, at Aβ (1-40) peptide, half-maximal inhibition (IC50) was put at 101 µM.

Compound `CCCCN1CCc2cc(C=C3SC(=S)N(CC(=O)O)C3=O)ccc21` [Example 56, {5-[(1-Butyl-2,3-dihydro-1H-indol-5-yl)methylidene]-4-oxo-2-thioxothiazolidin-3-yl}acetic acid] returned a melting point of over 250 °C. In addition, the IC50 at Aβ(1-40) [1] is over 100 µM. Besides, the IC50 at Aβ(1-40) [2] turned out to be 3 µM. At Aβ (1-42), this compound returned an IC50 of 11.5 µM. This compound also registered an IC50 against Aβ (1-40) peptide of 30 µM.

On to `Cc1ccc(Nc2ccc(CCCc3ccc(Cl)c(Cl)c3)cc2)c(C(=O)O)c1` [Example 59, 2-{4-[3-(3,4-Dichloro-phenyl)propyl]phenylamino}-5-methyl-benzoic acid], for which the melting point is 98 to 99 °C. In addition, the IC50 on Aβ(1-40) [1] is over 100 µM. In addition, the IC50 on Aβ(1-40) [2] was over 100 µM. At Aβ (1-42), this compound showed an IC50 of over 100 µM. The IC50 on Aβ (1-40) peptide is 3 µM.

`CS(=O)(=O)NC(=O)c1ccccc1Nc1ccc(CCCc2ccc(Cl)c(Cl)c2)cc1` [Example 60, N-(2-{4-[3-(3,4-Dichloro-phenyl)-propyl]-phenylamino}-benzoyl)-methanesulfonamide] yielded a melting point of 53 to 61 °C. The IC50 at Aβ(1-40) [1] was over 100 µM. Also, the IC50 on Aβ(1-40) [2] turned out to be 3 µM. This compound showed an IC50 on Aβ (1-42) of 40.7 µM. The same compound gave an IC50 at Aβ (1-40) peptide of 8 µM.

`O=C(O)c1cc([N+](=O)[O-])ccc1Nc1ccc(CCc2cccc(C(F)(F)F)c2Cl)cc1` [Example 63] had a melting point of 207 to 209 °C. On Aβ(1-40) [1], the IC50 was 15 µM (2×) and 18 µM. The IC50 on Aβ(1-40) [2] came out at 1 µM. The compound also registered an IC50 at Aβ (1-42) of 9.43 µM. The same compound came in with a 50% inhibitory concentration (IC50) at Aβ (1-40) peptide of 45 µM.

`Nc1ccc(Nc2ccc(CCc3ccc(Cl)c(Cl)c3)cc2)c(C(=O)O)c1` [Example 64, 5-Amino-2-{4-[2-(3,4-Dichloro-phenyl)-ethyl]-phenylamino}-benzoic acid] returned a melting point of 137 to 142 °C. The IC50 at Aβ(1-40) [1] is over 100 µM. In addition, the 50% inhibitory concentration (IC50) on Aβ(1-40) [2] was 5 µM. The compound also had an IC50 against Aβ (1-42) of 35 µM. The concentration for half-maximal inhibition (IC50) against Aβ (1-40) peptide is over 100 µM.

For `O=C(O)c1cc([N+](=O)[O-])ccc1Nc1ccc(CCc2ccccc2)cc1` [Example 65, 5-Nitro-2-(4-phenethyl-phenylamino)-benzoic acid], the melting point fell in the range of 198 to 202 °C. Moreover, the IC50 on Aβ(1-40) [1] was 60 µM and 80 µM. For the same compound, on Aβ(1-40) [2], the IC50 came out at 1.5 µM. Moreover, the IC50 at Aβ (1-42) was found to be 15.9 µM. Moreover, the half-maximal inhibitory concentration (IC50) on Aβ (1-40) peptide was over 100 µM.

As to `O=C(O)c1ccccc1Nc1ccc(CCc2ccc(F)c(C(F)(F)F)c2)cc1` [Example 66, 2-{4-[2-(4-Fluoro-3-trifluoromethyl-phenyl)-ethyl]-phenylamino}-benzoic acid], the melting point was 148 to 150 °C. Moreover, on Aβ(1-40) [1], the half-inhibitory concentration (IC50) was over 100 µM. The IC50 on Aβ(1-40) [2] amounted to 2.1 µM. Besides, half-maximal inhibition against Aβ (1-42) (IC50) required 50.1 µM. The compound further yielded a half-inhibitory concentration (IC50) against Aβ (1-40) peptide of over 100 µM.

`O=C(O)c1cc([N+](=O)[O-])ccc1Nc1ccc(CCc2ccc(F)c(F)c2)cc1` [Example 67, 2-{4-[2-(3,4-Difluoro-phenyl)-ethyl]-phenylamino}-5-nitro-benzoic acid] registered a melting point of 203 to 208 °C. Moreover, the IC50 at Aβ(1-40) [1] worked out at 41 µM. Further, the IC50 on Aβ(1-40) [2] is 4 µM. The compound further had a concentration for half-maximal inhibition (IC50) at Aβ (1-42) of 13.3 µM. In addition, the IC50 against Aβ (1-40) peptide was over 60 µM.

For `O=C(O)c1cc([N+](=O)[O-])ccc1Nc1ccc(CCc2ccc(F)c(C(F)(F)F)c2)cc1` [Example 69, 2-{4-[2-(4-Fluoro-3-trifluoromethyl-phenyl)-ethyl]-phenylamino}-5-nitro-benzoic acid], the melting point is 190 to 193 °C. Moreover, the IC50 at Aβ(1-40) [1] is 2 µM and 3.5 µM. Also, the IC50 on Aβ(1-40) [2] came out at 0.8 µM. The compound also had an IC50 at Aβ (1-42) of 11.7 µM. This compound also yielded an IC50 against Aβ (1-40) peptide of 58 µM.

`O=C(O)c1ccccc1Nc1ccc(CCc2ccccc2)cc1` [Example 70, 2-(4-Phenethyl-phenylamino)-benzoic acid] gave a melting point of 173 to 182 °C. Besides, on Aβ(1-40) [1], the IC50 is 20 µM. Moreover, at Aβ(1-40) [2], the IC50 is 10 µM. Further, the IC50 against Aβ (1-42) was over 100 µM. This compound also displayed an IC50 at Aβ (1-40) peptide of 65 µM.

The compound `O=C(O)c1cccnc1Nc1ccc(CCc2ccc(Cl)c(Cl)c2)cc1` [Example 72, 2-{4-[2-(3,4-Dichloro-phenyl)-ethyl]-phenylamino}-nicotinic acid] yielded a melting point of 168 to 171 °C. In addition, at Aβ(1-40) [1], the 50% inhibitory concentration (IC50) is 40 µM and 15 µM and 12 µM. Moreover, the 50% inhibitory concentration (IC50) on Aβ(1-40) [2] is 2 µM and 2.5 µM. At Aβ (1-42), the half-inhibitory concentration (IC50) was found to be 74.8 µM. Also, the IC50 on Aβ (1-40) peptide is over 60 µM.

For the compound `O=C(O)c1cc([N+](=O)[O-])ccc1Nc1ccc(CCc2cccc(Cl)c2)cc1` [Example 73, 2-{4-[2-(3-Chloro-phenyl)-ethyl]-phenylamino}-5-nitro-benzoic acid], the melting point lay within 192.5 to 194.5 °C. Moreover, the IC50 on Aβ(1-40) [1] was 25 µM and 35 µM and 40 µM. In addition, the IC50 on Aβ(1-40) [2] worked out at 0.3 µM. The compound further displayed an IC50 against Aβ (1-42) of 9.43 µM. In addition, the IC50 against Aβ (1-40) peptide is over 60 µM.

`O=C(O)c1cc([N+](=O)[O-])ccc1Nc1ccc(CCc2ccc(Cl)cc2)cc1` [Example 74, 2-{4-[2-(4-Chloro-phenyl)-ethyl]-phenylamino}-5-nitro-benzoic acid] showed a melting point of 210 to 212 °C. Further, at Aβ(1-40) [1], the IC50 was 6 µM and 18 µM (2×) and 19 µM. Further, the IC50 on Aβ(1-40) [2] was 0.3 µM and 0.5 µM. The compound further came in with an IC50 against Aβ (1-42) of 8.36 µM. At Aβ (1-40) peptide, the IC50 is over 60 µM.

`Cc1ccc(Nc2ccc(CCc3ccc(Cl)c(Cl)c3)cc2)c(C(=O)O)c1` [Example 75, 2-{4-[2-(3,4-Dichloro-phenyl)-ethyl]-phenylamino}-5-methyl-benzoic acid] yielded a melting point of 153 to 160 °C. Moreover, at Aβ(1-40) [1], the IC50 is over 100 µM. For the same compound, on Aβ(1-40) [2], the IC50 was 2.2 µM. At Aβ (1-42), this compound showed an IC50 of 46.2 µM. This compound displayed an IC50 on Aβ (1-40) peptide of over 60 µM.

`O=C(O)c1cc([N+](=O)[O-])ccc1Nc1ccc(CCc2ccccc2Cl)cc1` [Example 76, 2-{4-[2-(2-Chloro-phenyl)-ethyl]-phenylamino}-5-nitrobenzoic acid] displayed a melting point of 236 to 238 °C. The IC50 at Aβ(1-40) [1] came out at 3 µM. The IC50 at Aβ(1-40) [2] is 0.5 µM. On Aβ (1-42), this compound had an IC50 of 8.59 µM. This compound returned an IC50 on Aβ (1-40) peptide of over 60 µM.

Take `O=C(O)c1c(Nc2ccc(CCc3ccc(Cl)c(Cl)c3)cc2)cccc1C(F)(F)F` [Example 78, 2-{4-[2-(3,4-Dichloro-phenyl)-ethyl]-phenylamino}-6-trifluoromethyl-benzoic acid]: the melting point lay in the range of 130 to 132 °C. Also, the IC50 on Aβ(1-40) [1] amounted to 70 µM. On Aβ(1-40) [2], the IC50 is 0.1 µM. This compound also had an IC50 on Aβ (1-42) of over 100 µM. On Aβ (1-40) peptide, 8 µM corresponded to half-maximal inhibition (IC50).
